The values below come from ChEMBL document CHEMBL1201862, “PubChem BioAssay data set” (2004).

The term IC50 denotes the point on the concentration scale where inhibition reaches its midpoint. As a reminder, the AC50 is the midpoint of the concentration-response curve, whichever way the signal moves. As usually defined, the EC50 is the midpoint of the concentration-response curve. What is called Ki is the equilibrium dissociation constant of an inhibitor or competing ligand from its target.

Assay [1] concerns CHO-K1. Briefly: Counterscreen for antagonists of the orexin 1 receptor (OX1R; HCRTR1): Homogeneous time resolved fluorescence (HTRF)-based cell-based dose response assay to identify antagonists of the parental CHO-K1 cell line. [Related pubchem assays (depositor defined):AID434989, AID435008, AID463079, AID485270, AID492963, AID492964, AID492965, AID493232, AID504699, AID504701]. Type of assay: functional. To be noted: Cricetulus griseus.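 Also: potency for inhibition of ATP-stimulated IP1 production as antagonists.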

Assay [2] has as its target Paired box protein Pax-8 (Homo sapiens, UniProt Q06710). Briefly: PAX8 transcriptional activity inhibition in RMG-I – RMG-I cells, luciferase, cherry-pick, dose response (AID 687027).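 Also: luciferase reporter driven by Pax8 target thyroperoxidase promoter measured by SteadyGlo luminescence.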 The format is functional, cell-based.
Assay [3] in a line: Luminescence Cell-Based Dose Retest to Confirm Inhibitors of Cancer Stem Cells. [Related pubchem assays (depositor defined):AID2717, AID2721]. The format is functional. Conditions: Homo sapiens.
The target of assay [4] is T1, Orexin receptor type 2 (Homo sapiens, UniProt O43614). Briefly: Counterscreen assay for antagonists of the orexin 1 receptor (OX1R; HCRTR1): Fluorescence-based cell-based dose response assay for antagonists of the orexin 2 receptor (OX2R; HCRTR2), run by assay provider. The format is functional. For orientation: The purpose of a counterscreen is to sort out artefacts and off-target activity.
T1 sequence (O43614 whole entry): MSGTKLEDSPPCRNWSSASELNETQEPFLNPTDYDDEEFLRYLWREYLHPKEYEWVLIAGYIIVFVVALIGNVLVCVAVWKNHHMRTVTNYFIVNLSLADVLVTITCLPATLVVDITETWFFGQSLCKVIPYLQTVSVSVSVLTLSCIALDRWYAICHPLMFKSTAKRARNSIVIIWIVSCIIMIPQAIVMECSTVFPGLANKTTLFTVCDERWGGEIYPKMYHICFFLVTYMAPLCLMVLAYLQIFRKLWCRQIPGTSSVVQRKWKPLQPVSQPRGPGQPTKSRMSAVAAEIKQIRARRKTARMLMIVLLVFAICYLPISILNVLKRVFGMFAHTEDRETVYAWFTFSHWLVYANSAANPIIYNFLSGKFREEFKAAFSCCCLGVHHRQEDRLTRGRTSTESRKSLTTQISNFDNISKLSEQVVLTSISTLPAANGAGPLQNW

In assay [5] the test system is BJ. Kind of assay: cells. The format is functional, cell-based, Homo sapiens. To be noted: Homo sapiens, BJ.
Assay [6] in a line: DRD fibroblast viability loss – cell-based, non-viral oncogenic, luminescence, dose response (AID 1934). Type of assay: functional. Conditions: Homo sapiens.
Assay [7] is described as follows: Counterscreen for antagonists of the orexin 1 receptor (OX1R; HCRTR1): Fluorescence-based cell-based high throughput dose response assay to identify antagonists of the parental CHO cell line. [Related pubchem assays (depositor defined):AID434989, AID435008, AID463079, AID485270, AID492963, AID492964, AID492965, AID493232, AID504699, AID504701]. Type of assay: functional.

Assay [8] concerns the target T1, Orexin receptor type 2. Kind of assay: Counterscreen assay for antagonists of the orexin 1 receptor (OX1R; HCRTR1): Homogeneous Time Resolved Fluorescence (HTRF)-based cell-based dose response assay for antagonists of the orexin 2 receptor (OX2R; HCRTR2), run by assay provider. Type of assay: functional.
Assay [9] can be described thus: HEK-293T viability loss after treatment – luminescence, T-cell screen hits, cytotoxicity control for TCR NF-kB inhibitor project, dose response (AID 489026).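 Also: cells exposed to compound about 14 hours before the viability readout.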 The format is functional, cell-based.
For assay [10], the target named is T2, Orexin/Hypocretin receptor type 1 (Homo sapiens, UniProt O43613).
T2 sequence (O43613 whole entry): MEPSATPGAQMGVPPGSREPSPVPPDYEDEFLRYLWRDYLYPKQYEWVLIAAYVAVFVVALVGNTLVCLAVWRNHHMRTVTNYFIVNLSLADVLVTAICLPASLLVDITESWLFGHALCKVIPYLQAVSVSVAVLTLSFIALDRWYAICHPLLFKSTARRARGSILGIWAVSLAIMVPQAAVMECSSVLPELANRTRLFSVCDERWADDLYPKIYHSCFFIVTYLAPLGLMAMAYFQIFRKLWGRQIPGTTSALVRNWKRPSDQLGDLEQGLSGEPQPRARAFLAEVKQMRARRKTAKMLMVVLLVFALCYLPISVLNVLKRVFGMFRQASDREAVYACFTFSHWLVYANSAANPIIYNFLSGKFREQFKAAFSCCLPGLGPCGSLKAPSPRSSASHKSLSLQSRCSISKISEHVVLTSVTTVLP
Kind of assay: Homogeneous Time Resolved Fluorescence (HTRF)-based cell-based high throughput dose response assay for antagonists of the orexin 1 receptor (OX1R; HCRTR1). [Related pubchem assays (depositor defined):AID434989, AID435008, AID463079, AID485270, AID492963, AID492964, AID492965, AID493232, AID504717, AID504718]. The format is functional. (In general: Time-resolved FRET reads energy transfer from a long-lived donor to a nearby acceptor.)

The test system of assay [11] is BJ. Kind of assay: BJ-TERT fibroblast viability loss – cell-based, RAS-independent, luminescence, dose response (AID 1933). The format is functional, Homo sapiens. To be noted: Homo sapiens, BJ.
In assay [12] the test system is BJ. Kind of assay: BJ-TERT-LT-ST fibroblast viability loss – cell-based, RAS-independent, luminescence, dose response (AID 1935).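 Also: BJ fibroblasts immortalized with TERT plus LT and ST oncogenes.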 The format is functional, Homo sapiens. To be noted: Homo sapiens, BJ.
Assay [13] concerns the target T2, Orexin/Hypocretin receptor type 1. Kind of assay: Fluorescence-based cell-based high throughput dose response assay for antagonists of the orexin 1 receptor (OX1R; HCRTR1). [Related pubchem assays (depositor defined):AID434989, AID435008, AID463079, AID485270, AID492963, AID492964, AID492965, AID493232, AID504717, AID504718]. The format is functional.
Assay [14] has as its target Multidrug resistance protein CDR1 (Candida albicans, UniProt P43071). Briefly: inhibition of Nile Red efflux via Candida CDR1 – S. cerevisiae AD1-8u, singleplex, Cherry Pick1 hits, dose response (AID 588606). Type of assay: functional.
Assay [15] has as its target Cyclin-dependent kinase 7 (Homo sapiens, UniProt P50613). Type of assay: functional.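 Also: value comes from a kinome-wide kinase profiling panel in which CDK7 is one member.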
Assay [16] deals with Cyclin-dependent kinase 9 (Homo sapiens, UniProt P50750). Type of assay: functional.
For assay [17], the target named is Mitogen-activated protein kinase kinase kinase kinase 4 (Homo sapiens, UniProt O95819). The format is functional.
Chain of Mitogen-activated protein kinase kinase kinase kinase 4 (O95819 whole entry): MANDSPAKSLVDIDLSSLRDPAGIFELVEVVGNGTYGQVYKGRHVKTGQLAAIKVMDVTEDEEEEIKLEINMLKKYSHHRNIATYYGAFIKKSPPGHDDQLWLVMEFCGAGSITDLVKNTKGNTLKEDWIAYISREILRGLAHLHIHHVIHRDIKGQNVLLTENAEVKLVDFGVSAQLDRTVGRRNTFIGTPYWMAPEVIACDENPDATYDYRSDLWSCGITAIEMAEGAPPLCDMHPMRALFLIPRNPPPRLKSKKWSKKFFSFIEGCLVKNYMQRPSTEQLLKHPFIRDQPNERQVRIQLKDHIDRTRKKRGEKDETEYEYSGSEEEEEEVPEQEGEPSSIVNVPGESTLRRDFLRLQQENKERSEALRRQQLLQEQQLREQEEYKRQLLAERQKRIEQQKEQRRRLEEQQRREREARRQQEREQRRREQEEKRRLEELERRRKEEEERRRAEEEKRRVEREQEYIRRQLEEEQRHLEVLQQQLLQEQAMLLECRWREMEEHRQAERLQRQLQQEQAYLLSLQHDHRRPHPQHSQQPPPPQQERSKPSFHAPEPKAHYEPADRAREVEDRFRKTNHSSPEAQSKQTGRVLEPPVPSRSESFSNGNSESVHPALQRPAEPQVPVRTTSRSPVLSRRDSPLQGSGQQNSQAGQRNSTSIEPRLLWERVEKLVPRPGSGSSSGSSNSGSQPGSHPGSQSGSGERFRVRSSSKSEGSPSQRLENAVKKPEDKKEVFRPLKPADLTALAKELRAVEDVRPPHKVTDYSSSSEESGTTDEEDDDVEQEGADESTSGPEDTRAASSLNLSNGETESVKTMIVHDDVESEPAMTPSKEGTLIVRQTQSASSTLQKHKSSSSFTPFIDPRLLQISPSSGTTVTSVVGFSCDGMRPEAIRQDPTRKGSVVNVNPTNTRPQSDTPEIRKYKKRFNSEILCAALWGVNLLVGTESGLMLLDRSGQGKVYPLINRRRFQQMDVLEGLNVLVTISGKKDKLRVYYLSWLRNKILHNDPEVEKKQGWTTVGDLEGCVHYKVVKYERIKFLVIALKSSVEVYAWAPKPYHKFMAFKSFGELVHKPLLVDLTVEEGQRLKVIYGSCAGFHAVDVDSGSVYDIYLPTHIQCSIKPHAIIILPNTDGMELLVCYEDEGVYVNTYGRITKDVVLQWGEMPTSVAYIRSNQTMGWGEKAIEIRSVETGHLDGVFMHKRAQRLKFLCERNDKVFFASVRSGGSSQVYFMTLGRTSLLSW
Assay [18] addresses Serine/threonine-protein kinase pim-1 (Homo sapiens, UniProt P11309). The format is functional.
For assay [19], the target named is T3, Interleukin-1 receptor-associated kinase 4 (Homo sapiens, UniProt Q9NWZ3).
T3 sequence (Q9NWZ3 whole entry): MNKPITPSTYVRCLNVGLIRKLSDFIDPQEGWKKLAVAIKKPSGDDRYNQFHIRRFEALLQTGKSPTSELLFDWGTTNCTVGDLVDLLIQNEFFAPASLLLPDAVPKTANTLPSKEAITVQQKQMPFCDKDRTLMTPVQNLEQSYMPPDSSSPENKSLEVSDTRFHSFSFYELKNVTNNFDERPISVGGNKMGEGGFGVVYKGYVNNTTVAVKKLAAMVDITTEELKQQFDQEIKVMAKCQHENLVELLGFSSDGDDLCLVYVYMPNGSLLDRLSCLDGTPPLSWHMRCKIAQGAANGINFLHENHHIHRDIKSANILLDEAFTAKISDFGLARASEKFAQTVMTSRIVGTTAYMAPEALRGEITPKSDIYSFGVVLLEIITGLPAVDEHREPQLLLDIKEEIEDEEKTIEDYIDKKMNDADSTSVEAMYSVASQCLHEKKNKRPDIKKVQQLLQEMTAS
The format is functional.

The target in assay [20] is Cell division cycle 7-related protein kinase (Homo sapiens, UniProt O00311). The format is functional.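 Also: value obtained from a kinome-wide kinase panel.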
Chain of Cell division cycle 7-related protein kinase (O00311 whole entry): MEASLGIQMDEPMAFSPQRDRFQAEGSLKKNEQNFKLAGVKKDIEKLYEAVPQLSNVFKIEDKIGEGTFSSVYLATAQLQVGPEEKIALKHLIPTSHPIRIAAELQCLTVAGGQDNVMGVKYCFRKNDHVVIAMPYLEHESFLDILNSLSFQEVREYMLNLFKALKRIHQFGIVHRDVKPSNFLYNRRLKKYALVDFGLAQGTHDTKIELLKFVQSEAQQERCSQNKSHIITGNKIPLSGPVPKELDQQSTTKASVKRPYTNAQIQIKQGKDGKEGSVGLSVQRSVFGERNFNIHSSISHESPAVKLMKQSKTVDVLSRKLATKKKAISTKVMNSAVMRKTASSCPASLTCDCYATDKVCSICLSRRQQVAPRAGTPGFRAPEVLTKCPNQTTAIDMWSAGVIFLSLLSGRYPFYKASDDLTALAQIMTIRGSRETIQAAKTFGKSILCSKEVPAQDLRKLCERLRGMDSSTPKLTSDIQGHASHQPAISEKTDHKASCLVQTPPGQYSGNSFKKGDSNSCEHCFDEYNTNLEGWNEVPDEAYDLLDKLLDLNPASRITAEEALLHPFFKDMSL
Assay [21] deals with Homeodomain-interacting protein kinase 2 (Homo sapiens, UniProt Q9H2X6). Type of assay: functional.
For assay [22], the target named is cAMP-dependent protein kinase catalytic subunit alpha (Homo sapiens, UniProt P17612). The format is functional.
Assay [23] deals with Cyclin-dependent kinase 5 (Homo sapiens, UniProt Q00535). The format is functional.
In assay [24] the target is Cyclin-dependent kinase 8 (Homo sapiens, UniProt P49336). Kind of assay: Navigating the Kinome. Panel member name: CDK8. The format is functional.
Chain of Cyclin-dependent kinase 8 (P49336 whole entry): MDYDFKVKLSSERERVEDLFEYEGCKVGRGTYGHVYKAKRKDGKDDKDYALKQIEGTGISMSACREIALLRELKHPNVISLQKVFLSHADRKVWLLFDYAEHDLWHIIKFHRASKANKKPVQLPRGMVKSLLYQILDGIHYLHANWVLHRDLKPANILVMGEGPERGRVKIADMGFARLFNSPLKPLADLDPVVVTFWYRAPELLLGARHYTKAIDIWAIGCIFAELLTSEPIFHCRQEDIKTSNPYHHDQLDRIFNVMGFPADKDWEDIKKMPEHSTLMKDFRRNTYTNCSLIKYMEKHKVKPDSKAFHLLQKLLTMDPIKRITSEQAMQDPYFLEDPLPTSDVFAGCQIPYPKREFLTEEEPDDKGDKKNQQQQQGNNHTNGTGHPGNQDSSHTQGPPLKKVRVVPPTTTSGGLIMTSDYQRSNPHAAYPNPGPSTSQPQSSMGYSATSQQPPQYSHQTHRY
In assay [25] the target is Dual specificity protein kinase CLK4 (Homo sapiens, UniProt Q9HAZ1). The format is functional.

Each structure is given as a SMILES string. Activity calls are given as the source filed them.

Chain of Serine/threonine-protein kinase pim-1 (P11309 whole entry): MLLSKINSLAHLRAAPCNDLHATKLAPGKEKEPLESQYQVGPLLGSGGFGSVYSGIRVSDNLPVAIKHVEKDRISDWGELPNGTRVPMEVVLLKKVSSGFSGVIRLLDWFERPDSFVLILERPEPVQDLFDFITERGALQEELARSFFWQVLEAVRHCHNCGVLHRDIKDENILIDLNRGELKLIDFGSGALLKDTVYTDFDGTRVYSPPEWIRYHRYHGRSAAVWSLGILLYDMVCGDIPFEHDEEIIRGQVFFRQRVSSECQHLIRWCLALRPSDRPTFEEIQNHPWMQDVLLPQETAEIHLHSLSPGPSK
Chain of Cyclin-dependent kinase 7 (P50613 whole entry): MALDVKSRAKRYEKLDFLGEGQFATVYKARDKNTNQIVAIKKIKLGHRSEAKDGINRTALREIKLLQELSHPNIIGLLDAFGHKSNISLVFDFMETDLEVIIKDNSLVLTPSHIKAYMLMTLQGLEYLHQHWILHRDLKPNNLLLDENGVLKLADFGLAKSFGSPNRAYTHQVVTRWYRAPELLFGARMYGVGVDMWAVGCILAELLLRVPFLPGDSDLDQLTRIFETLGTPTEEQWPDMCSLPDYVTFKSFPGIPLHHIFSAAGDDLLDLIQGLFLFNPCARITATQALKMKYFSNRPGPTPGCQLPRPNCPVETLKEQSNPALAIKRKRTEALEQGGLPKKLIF
Chain of Multidrug resistance protein CDR1 (P43071 whole entry, looked up): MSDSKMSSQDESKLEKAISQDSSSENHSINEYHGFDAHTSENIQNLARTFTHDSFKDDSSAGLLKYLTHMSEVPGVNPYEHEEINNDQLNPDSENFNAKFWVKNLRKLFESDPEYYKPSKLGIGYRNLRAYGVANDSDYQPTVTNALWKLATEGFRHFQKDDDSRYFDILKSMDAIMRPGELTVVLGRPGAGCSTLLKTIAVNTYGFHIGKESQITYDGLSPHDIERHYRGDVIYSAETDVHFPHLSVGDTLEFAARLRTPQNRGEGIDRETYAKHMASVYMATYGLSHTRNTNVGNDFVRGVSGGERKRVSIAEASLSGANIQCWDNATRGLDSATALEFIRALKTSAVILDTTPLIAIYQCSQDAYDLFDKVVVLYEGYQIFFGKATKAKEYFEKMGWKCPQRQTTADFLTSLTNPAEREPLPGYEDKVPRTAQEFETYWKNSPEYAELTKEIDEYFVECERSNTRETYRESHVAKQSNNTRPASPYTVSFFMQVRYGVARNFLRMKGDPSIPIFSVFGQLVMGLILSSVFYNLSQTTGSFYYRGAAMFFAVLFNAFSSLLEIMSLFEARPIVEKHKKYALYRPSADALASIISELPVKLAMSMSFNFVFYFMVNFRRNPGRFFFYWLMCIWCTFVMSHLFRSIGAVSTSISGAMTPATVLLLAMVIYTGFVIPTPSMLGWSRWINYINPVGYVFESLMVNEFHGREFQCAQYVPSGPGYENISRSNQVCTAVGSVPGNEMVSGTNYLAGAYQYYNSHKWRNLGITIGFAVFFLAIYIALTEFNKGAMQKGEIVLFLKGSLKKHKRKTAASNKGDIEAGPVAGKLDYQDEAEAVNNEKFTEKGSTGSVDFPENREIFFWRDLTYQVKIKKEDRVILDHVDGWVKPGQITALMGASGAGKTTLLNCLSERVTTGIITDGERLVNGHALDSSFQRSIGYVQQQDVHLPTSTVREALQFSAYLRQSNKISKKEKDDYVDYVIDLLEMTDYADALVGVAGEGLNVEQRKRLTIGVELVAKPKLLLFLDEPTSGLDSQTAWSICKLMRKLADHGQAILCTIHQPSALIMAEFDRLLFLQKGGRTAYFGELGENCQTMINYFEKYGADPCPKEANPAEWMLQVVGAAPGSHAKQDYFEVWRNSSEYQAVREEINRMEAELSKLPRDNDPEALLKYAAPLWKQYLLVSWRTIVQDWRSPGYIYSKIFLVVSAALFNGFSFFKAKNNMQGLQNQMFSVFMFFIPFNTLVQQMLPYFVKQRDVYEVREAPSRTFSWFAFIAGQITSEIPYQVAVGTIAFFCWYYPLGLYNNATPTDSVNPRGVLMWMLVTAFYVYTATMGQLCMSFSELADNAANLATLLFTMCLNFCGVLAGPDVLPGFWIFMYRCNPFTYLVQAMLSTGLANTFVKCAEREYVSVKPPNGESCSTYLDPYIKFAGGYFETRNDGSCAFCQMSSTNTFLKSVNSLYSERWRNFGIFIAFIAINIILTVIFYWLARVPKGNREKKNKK

As to `CCn1c2ccccc2c2cc(NC(=O)c3cc(OC)cc(OC)c3)ccc21`, the IC50 in assay [1] was > 66200 nM (inactive); in assay [4] it was 21700 nM (inactive); in [7], > 49800 nM (inactive); in assay [8], > 50000 nM (inactive); in assay [9], > 80000 nM (inactive); in assay [10], 554 nM (active). Further, the IC50 in assay [13] was 1380 nM (active). Further, the figures for the AC50 in assay [2] and in [3] were 4740 nM (active) and < 160 nM (active), respectively. Besides, the EC50 was 22800 nM (active) in assay [5], 545 nM (active) in [6], 431 nM (active) in assay [11] and 365 nM (inconclusive) in assay [12].
Turning to `COc1cc2c(cc1NC(=O)CSc1nnc(Cc3cccs3)n1Cc1ccco1)oc1ccccc12`, the EC50 in [14] is 11 nM (active).
As for `NC(=O)c1ccccc1Nc1nc(Nc2ccccc2)ncc1C(F)(F)F`, the Ki in [15] is 5.01 nM (active); in assay [16] it was 39.8 nM (active); in assay [17], 25.1 nM (active); in assay [18], 2510 nM (active); in assay [19], 39.8 nM (active); in assay [20], 5.01 nM (active). For the same compound, the Ki in assay [21] is 3.98 nM (active); in assay [22], 200 nM (active).
With `CC(C)(O)c1c(-c2ccccc2)n[nH]c(=O)c1N`, the Ki is 50100 nM (active) in assay [23], 50100 nM (active) in assay [24] and 31600 nM (active) in assay [25].
